Laboratory results: patent US9309242B2, “Substituted pyrido[2,3-b]pyrazines as FGFR kinase inhibitors” (priority 2011, dated 2016)
Where two headings read alike, the source gives them in different places.

Key:
[1] = biological target: Ba/F3-FGFR4-transfected cells (Homo sapiens, UniProt P22455); assay: Ba/F3-FGFR4 cellular proliferation assay, Alamar Blue; assay type: cell-based
Summary of the method: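 Ba/F3-FGFR4 cells (20000/well) in phenol red-free RPMI-1640 with 10% FBS are exposed to compound for 24 h at 37 °C, 5% CO2. Alamar Blue (resazurin) is then added for 4 h and fluorescence read at ex 540/em 590 nm.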

[2] = test system: Ba/F3-FGFR1-transfected cells; assay: Ba/F3-FGFR1 (plus IL3) cellular proliferation assay, counterscreen with 10 ng/ml murine IL3; assay type: cell-based; conditions: plus IL3 (10 ng/ml murine IL3, counterscreen); read-out: BAF3-FGFR1 (PLUS IL3) pIC50 (converted)
Summary of the method: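 Ba/F3-FGFR1 cells (20000/well) in RPMI-1640 with 10% FBS exposed to compound for 24 h at 37° C., 5% CO2, then Alamar Blue (resazurin) added for 4 h; fluorescence read at ex 540/em 590 nm. Counterscreen run identically with 10 ng/ml murine IL3.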

FGFR3 (h) = FGFR3 (h) (Homo sapiens, UniProt P22607); assay: FGFR3 (enzymatic assay), TR-FRET; assay type: biochemical; conditions: read-out: FGFR 3 pIC50 (converted)
From the text: Time-Resolved Fluorescence Resonance Energy Transfer (TR-FRET) signal (ex340 nm.

KDR (h) = KDR (h) (Homo sapiens, UniProt P35968); assay: KDR (VEGFR2) (enzymatic assay), TR-FRET; assay type: biochemical; conditions: read-out: VEGFR 2 (KDR) pIC50 (converted)
Summary of the method: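 Human KDR (150 ng/ml) was reacted with 500 nM Btn-Flt3 and 3 μM ATP in 50 mM HEPES pH 7.5, 6 mM MnCl2, 1 mM DTT, 0.1 mM Na3VO4, 0.01% Triton X-100, 1% DMSO, for 120 min at room temperature. Phosphorylation detected by TR-FRET (Eu-anti-P-Tyr/SA-XL665, 60 min), read in RFU.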

FGFR1 (h) = FGFR1 (h) (Homo sapiens, UniProt P11362); assay: FGFR1 (enzymatic assay), TR-FRET; assay type: biochemical; conditions: read-out: FGFR 1 pIC50 (converted)
[3] = average values if tested multiple times

Sequence of FGFR3 (h) (P22607 23-806): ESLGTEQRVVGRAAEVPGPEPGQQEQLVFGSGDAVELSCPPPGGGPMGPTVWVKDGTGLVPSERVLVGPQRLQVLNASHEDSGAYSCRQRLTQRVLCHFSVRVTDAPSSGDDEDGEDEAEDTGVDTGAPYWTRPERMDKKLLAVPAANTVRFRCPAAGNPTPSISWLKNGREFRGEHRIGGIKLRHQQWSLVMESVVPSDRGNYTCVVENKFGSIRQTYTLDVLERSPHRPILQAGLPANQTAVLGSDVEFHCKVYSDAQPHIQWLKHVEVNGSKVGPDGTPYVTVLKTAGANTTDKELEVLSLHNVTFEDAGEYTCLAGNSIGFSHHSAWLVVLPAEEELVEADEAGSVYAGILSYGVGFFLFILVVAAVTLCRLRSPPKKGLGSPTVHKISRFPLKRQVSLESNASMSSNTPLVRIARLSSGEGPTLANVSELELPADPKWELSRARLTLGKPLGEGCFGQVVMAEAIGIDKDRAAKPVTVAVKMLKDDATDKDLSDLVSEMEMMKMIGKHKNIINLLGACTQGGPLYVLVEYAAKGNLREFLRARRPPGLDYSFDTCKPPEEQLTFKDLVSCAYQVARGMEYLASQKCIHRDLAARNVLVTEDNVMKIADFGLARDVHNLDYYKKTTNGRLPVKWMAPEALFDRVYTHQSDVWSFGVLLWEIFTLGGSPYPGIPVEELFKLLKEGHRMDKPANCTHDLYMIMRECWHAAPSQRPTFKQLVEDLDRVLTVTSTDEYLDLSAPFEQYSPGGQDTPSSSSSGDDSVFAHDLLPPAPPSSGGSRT
Sequence of FGFR1 (h) (P11362 22-822): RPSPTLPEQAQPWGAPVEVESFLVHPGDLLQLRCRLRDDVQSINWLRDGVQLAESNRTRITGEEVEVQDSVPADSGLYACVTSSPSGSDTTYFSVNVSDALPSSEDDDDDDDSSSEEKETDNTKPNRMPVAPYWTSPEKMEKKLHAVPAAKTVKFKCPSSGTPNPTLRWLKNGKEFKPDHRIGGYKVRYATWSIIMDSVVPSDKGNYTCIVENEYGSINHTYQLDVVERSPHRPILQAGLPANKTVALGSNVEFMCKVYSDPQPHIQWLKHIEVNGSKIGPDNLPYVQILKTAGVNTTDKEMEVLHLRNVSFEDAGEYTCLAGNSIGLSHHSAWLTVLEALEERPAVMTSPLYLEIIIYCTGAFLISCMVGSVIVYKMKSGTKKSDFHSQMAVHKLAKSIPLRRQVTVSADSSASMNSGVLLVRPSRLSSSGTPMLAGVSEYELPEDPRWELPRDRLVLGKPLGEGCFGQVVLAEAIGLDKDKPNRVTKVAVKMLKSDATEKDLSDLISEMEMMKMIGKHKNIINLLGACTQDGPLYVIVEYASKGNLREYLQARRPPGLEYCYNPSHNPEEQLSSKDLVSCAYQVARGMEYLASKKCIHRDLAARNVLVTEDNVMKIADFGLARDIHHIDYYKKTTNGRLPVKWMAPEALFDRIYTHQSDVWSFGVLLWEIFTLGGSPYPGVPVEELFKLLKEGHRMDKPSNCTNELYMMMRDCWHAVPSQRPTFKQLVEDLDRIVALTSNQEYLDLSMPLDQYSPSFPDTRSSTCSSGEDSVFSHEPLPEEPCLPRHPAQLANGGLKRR
Sequence of Ba/F3-FGFR4-transfected cells (P22455 whole entry, change not shown): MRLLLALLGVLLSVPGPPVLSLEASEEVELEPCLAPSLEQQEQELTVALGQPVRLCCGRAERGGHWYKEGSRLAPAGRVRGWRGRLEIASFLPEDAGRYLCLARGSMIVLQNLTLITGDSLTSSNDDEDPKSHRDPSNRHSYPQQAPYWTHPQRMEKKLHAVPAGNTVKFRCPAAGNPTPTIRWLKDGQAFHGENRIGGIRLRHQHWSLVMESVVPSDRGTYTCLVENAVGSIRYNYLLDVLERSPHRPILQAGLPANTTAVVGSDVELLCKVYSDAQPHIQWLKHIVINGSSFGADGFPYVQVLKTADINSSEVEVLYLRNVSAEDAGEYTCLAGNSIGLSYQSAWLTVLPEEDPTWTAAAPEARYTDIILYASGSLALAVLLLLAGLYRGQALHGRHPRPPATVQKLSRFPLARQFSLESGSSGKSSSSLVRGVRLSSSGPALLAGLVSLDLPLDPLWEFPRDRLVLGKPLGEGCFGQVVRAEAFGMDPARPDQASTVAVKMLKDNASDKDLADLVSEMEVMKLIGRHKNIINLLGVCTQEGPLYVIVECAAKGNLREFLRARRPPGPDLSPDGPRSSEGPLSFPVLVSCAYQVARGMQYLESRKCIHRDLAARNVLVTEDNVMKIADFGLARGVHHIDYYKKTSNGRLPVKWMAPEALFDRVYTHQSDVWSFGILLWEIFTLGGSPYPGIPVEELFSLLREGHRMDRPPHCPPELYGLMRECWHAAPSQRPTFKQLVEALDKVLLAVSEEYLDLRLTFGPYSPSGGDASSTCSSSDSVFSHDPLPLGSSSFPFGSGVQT
Sequence of KDR (h) (P35968 20-1356): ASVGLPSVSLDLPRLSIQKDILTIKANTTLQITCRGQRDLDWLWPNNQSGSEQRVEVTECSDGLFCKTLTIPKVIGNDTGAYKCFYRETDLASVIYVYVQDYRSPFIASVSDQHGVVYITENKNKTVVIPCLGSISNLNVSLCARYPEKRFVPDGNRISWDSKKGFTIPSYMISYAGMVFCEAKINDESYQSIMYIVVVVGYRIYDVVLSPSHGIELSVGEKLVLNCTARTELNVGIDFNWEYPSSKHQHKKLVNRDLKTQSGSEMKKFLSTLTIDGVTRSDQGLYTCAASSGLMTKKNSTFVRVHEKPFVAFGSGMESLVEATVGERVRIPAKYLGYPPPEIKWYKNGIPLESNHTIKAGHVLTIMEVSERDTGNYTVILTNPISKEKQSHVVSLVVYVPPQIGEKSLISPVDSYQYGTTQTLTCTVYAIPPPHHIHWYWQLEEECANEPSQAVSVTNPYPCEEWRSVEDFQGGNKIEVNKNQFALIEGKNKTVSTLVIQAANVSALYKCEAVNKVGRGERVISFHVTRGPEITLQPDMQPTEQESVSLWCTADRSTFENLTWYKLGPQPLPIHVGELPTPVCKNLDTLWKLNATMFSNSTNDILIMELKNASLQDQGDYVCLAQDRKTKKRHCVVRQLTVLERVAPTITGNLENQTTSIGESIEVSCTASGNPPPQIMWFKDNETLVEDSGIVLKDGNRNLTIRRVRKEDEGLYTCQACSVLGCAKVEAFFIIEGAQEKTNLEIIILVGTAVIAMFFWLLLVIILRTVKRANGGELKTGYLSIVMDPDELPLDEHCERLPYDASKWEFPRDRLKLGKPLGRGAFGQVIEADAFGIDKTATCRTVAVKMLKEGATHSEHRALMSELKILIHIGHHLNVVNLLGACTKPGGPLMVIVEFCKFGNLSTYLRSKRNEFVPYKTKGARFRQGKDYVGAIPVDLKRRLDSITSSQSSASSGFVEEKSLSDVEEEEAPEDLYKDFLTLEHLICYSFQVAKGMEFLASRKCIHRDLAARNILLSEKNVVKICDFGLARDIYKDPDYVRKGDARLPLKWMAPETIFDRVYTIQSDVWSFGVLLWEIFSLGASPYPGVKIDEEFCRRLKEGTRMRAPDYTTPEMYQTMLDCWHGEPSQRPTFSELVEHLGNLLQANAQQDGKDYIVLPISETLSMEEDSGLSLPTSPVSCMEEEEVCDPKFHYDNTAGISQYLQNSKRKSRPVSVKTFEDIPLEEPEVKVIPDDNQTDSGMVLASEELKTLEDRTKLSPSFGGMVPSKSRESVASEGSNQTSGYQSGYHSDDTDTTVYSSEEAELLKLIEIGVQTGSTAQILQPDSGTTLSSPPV

Row | SMILES | BAF3-FGFR4 pIC50 [1] | IC50 [2] | IC50 (FGFR3 (h); [3]) | IC50 (KDR (h); [3]) | IC50 (FGFR1 (h); [3]) | IC50 (FGFR3 (h)) | IC50 (KDR (h)) | IC50 (FGFR1 (h))
1 | COc1cc(OC)c(F)c(/N=c2\ccc3ncc(-c4cnn(C)c4)nc3n2CC2CCC(=O)N2)c1F (centres unmarked) [Compound 193] | 7.00 | > 10000 nM | 0.417 nM | 7.24 nM | 0.55 nM |  |  | 
2 | COc1cc(OC)c(F)c(N(Cc2ccnn2C)c2ccc3ncc(-c4cnn(C)c4)nc3n2)c1 [Compound 113] | 6.63 | > 10000 nM | 1.38 nM | 51.3 nM | 2 nM |  |  | 
3 | COc1cc(/N=c2\ccc3ncc(-c4cnn(C)c4)nc3n2Cc2cc[nH]n2)c(F)c(OC)c1 [Compound 115] | ~7.59 | > 10000 nM | 0.851 nM | 5.89 nM | 0.708 nM |  |  | 
4 | COc1cc(OC)c(F)c(N(Cc2ncc[nH]2)c2ccc3ncc(-c4cnn(C)c4)nc3n2)c1 [Compound 23] | 8.02 | > 10000 nM | 1.07 nM | 7.08 nM | 0.741 nM |  |  | 
5 | COc1cc(OC)c(F)c(N(Cc2nc[nH]c2C)c2ccc3ncc(-c4cnn(C)c4)nc3n2)c1 [Compound 109] | ~7.05 | > 10000 nM | 1.45 nM | 20 nM | 1.15 nM |  |  | 
6 | COc1cc(OC)c(F)c(N(Cc2nc3c([nH]2)CCNC3)c2ccc3ncc(-c4cnn(C)c4)nc3n2)c1 [Compound 104] | 5.74 | > 10000 nM | 3.09 nM | 26.3 nM | 2.57 nM |  |  | 
7 | COc1cc(/N=c2\ccc3ncc(-c4cnn(C)c4)nc3n2CC2COC(=O)N2)c(F)c(OC)c1 (single isomer, unassigned) [Compound 112] | 6.67 | > 10000 nM | 0.776 nM | 17 nM | 1.26 nM |  |  | 
8 | CNCCn1/c(=N/c2c(Cl)ccc(OC)c2Cl)ccc2ncc(-c3cnn(C)c3)nc21 [Compound 84] | <5 | > 10000 nM | 363 nM | > 1000 nM | 224 nM |  |  | 
9 | CNCCN(c1ccc2ncc(-c3cnn(C)c3)nc2n1)c1c(Cl)ccc(OC)c1Cl [Compound 83] | <5 | > 10000 nM | 105 nM | > 1000 nM | 75.9 nM |  |  | 
10 | COc1cc(OC)c(F)c(N(Cc2ccn(C)n2)c2ccc3ncc(-c4cnn(C)c4)nc3n2)c1 [Compound 128] | 7.12 | > 10000 nM |  |  |  | 1.05 nM | 7.94 nM | 1.32 nM
11 | COc1ccc(Cl)c(N(Cc2ncc[nH]2)c2ccc3ncc(-c4cnn(C)c4)nc3n2)c1Cl [Compound 65] | 5.21 | > 10000 nM | 34.7 nM | 191 nM | 38.9 nM |  |  | 
12 | COc1cc(OC)c(F)c(N(Cc2c[nH]c(C)n2)c2ccc3ncc(-c4cnn(C)c4)nc3n2)c1 [Compound 137] | 7.23 | > 10000 nM |  |  |  | 1.58 nM | 11.2 nM | 1.48 nM
13 | COc1cc(OC)c(F)c(N(Cc2cc[nH]n2)c2ccc3ncc(-c4cnn(C)c4)nc3n2)c1 [Compound 118] | ~7.56 | > 10000 nM | 0.589 nM | 6.46 nM | 0.759 nM |  |  | 
14 | CNCCN(c1ccc2ncc(-c3cnn(C)c3)nc2n1)c1c(F)ccc(OC)c1Cl [Compound 69] | 6.11 | > 10000 nM | 6.46 nM | 417 nM | 3.02 nM |  |  | 
15 | COc1cc(OC)c(F)c(N(Cc2nc[nH]n2)c2ccc3ncc(-c4cnn(C)c4)nc3n2)c1F [Compound 85] | 7.66 | > 10000 nM | 2.14 nM | 6.76 nM | 1.02 nM |  |  | 
16 | COc1cc(OC)c(F)c(N(CCO)c2ccc3ncc(-c4cnn(C)c4)nc3n2)c1 [Compound 40] | 7.04 | > 10000 nM | 0.646 nM | 17.4 nM | 0.724 nM |  |  | 
17 | COc1cc(OC)c(F)c(N(Cc2ncc[nH]2)c2ccc3ncc(-c4cnn(Cc5ncc[nH]5)c4)nc3n2)c1 [Compound 100] | 6.99 | > 10000 nM | 1.29 nM | 8.13 nM | 1.29 nM |  |  | 
18 | COc1cc(OC)c(F)c(N(CCN)c2ccc3ncc(-c4cnn(C)c4)nc3n2)c1F [Compound 67] | 7.37 | > 10000 nM | 1.2 nM | 14.5 nM | 0.813 nM |  |  | 
19 | COc1cc(OC)c(F)c(N(Cc2nc[nH]n2)c2ccc3ncc(-c4cnn(C)c4)nc3n2)c1 [Compound 86] | 7.33 | > 10000 nM | 1 nM | 7.59 nM | 1.26 nM |  |  | 
20 | COc1cc(OC)c(F)c(N(Cc2nc(C)c[nH]2)c2ccc3ncc(-c4cnn(C)c4)nc3n2)c1 [Compound 135] | 8.05 | > 10000 nM |  |  |  | 1.48 nM | 8.71 nM | 1.17 nM
21 | CNCCN(c1ccc2ncc(-c3cn[nH]c3)nc2n1)c1c(F)c(OC)cc(OC)c1F [Compound 106] | ~6.65 | > 10000 nM | 1.48 nM | 25.1 nM | 1.86 nM |  |  | 
22 | COc1cc(OC)c(F)c(N(CCCN2CCCC2=O)c2ccc3ncc(-c4cnn(C)c4)nc3n2)c1F [Compound 56] | 7.41 | > 10000 nM | 2.75 nM | 7.76 nM | 0.891 nM |  |  | 
23 | COc1cc(OC)c(F)c(N(Cc2nncn2C)c2ccc3ncc(-c4cnn(C)c4)nc3n2)c1 [Compound 132] | ~6.13 | > 10000 nM |  |  |  | 4.27 nM | 42.7 nM | 5.62 nM
24 | COc1cc(OC)c(Cl)c(N(Cc2ncc[nH]2)c2ccc3ncc(-c4cnn(C)c4)nc3n2)c1Cl [Compound 98] | 6.56 | > 10000 nM | 2.69 nM | 16.6 nM | ~3.89 nM |  |  | 
25 | COc1cc(/N=c2\ccc3ncc(-c4cnn(C)c4)nc3n2CC2COC(=O)N2)c(F)c(OC)c1 (centres unmarked) [Compound 123] | 6.62 | > 10000 nM |  |  |  | 0.741 nM | 21.9 nM | 1.35 nM
26 | COc1cc(OC)cc(N(Cc2ncc[nH]2)c2ccc3ncc(-c4cnn(C)c4)nc3n2)c1 [Compound 24] | 7.77 | > 10000 nM | 0.603 nM | 10.7 nM | 0.55 nM |  |  | 
27 | COc1cc(OC)c(Cl)c(N(CC2CCC(=O)N2)c2ccc3ncc(-c4cnn(C)c4)nc3n2)c1Cl (single isomer, unassigned) [Compound 88] | 5.65 | > 10000 nM | 6.76 nM | 102 nM | 12.9 nM |  |  | 
28 | COc1cc(OC)c(F)c(N(CC2COC(=O)N2)c2ccc3ncc(-c4cnn(C)c4)nc3n2)c1 (centres unmarked) [Compound 124] | ~6.64 | > 10000 nM |  |  |  | 1.55 nM | 60.3 nM | 3.09 nM
